Experimental data: US20070026431A1, “Modulation of MAPK-mediated phosphorylation and/or FBXW8-mediated ubiquitinylation of cyclin D1 in modulation of cellular proliferation” (priority 2005, published 2007)
Read-outs that look alike come from different tables or passages of the source. Peptide text beside a SMILES is read from it. * marks the point of attachment. Cbz = O=C(OCc1ccccc1)*

Assays:
MAPK (ERK1/2) = test: Western blot after 4-HT treatment, ΔB-Raf:ER^TAM NIH 3T3 cells; type: cell-based, mouse; settings: 10 nM 4-HT
Protocol: (§1) Panel B: Western blot analysis. […] Panel C: Western blot analysis after 4-HT treatment. […] A half-life of cyclin D1 protein was calculated.
(§2) In order to investigate whether this was due to accelerated turnover of the cyclin D1 protein, the half-life of endogenous expression of cyclin D1 protein (FIG. 8, Panel E) was assessed.

cyclin D1 protein [1] = test: Cyclin D1 expression and half-life after 4-HT in ΔB-Raf:ER^TAM NIH 3T3 cells; type: cell-based, mouse
Protocol: as §1, §2

[2] = tested on: polyubiquitinated cyclin D1; test: Polyubiquitination of cyclin D1, IP-immunoblot in HA-ubiquitin transfected S phase HCT 116 cells; type: cell-based, human
Protocol: FIG. 3 illustrates that cyclin D1 is destabilized during S phase through the ubiquitin-proteasome pathway in cancers. Panels A and B: Pulse-chase analysis of cyclin D1 protein in NIH 3T3 (Panel A) and HCT 116 (Panel B) cells. When most of the populations were in G1 phase (9 hrs for NIH3T3 and 6 hrs for HCT 116) or in S phase (21 hrs for NIH3T3 and 15 hrs for HCT 116), cells were released from quiescence and then labeled with 35^S-methionine for 1 hour. Subsequently these cells were chased with cold methionine for the indicated times and then lysed. Cyclin D1 was immunoprecipitated and then analyzed with SDS-PAGE. Autoradiography was performed. Levels of metabolically labeled-cyclin D1 were estimated by quantitative scanning using the Quantity One (Bio-Rad) software and blotted on the graph to determine the half-life of cyclin D1. Panel C: illustrates that the turnover of cyclin D1 protein is mediated by the ubiquitin-proteasome pathway. […]
To confirm that the destabilization of cyclin D1 in the S phase is related to polyubiquitination, HCT 116 colon cancer cells were transfected with (lanes 1-3) or without (lane 4) HA-tagged ubiquitin cDNA and then synchronized to the S phase (FIG. 3, Panel D). […] A group of slower migrating bands was detected by the HA antibody exclusively in the anti-cyclin D1 immunoprecipitates in the presence of ubiquitin (lane 2 and 3). […]

GSK3α/β = test: Phosphorylation-specific blot for GSK3α/β, SW480 cells; type: cell-based, human; settings: 24 hours of treatment
[3] = tested on: cyclin D1 protein (Thr286 phosphorylation); test: Western blot of cyclin D1 and p-Thr286 cyclin D1 in HA-CD1 SW480 cells treated with kinase inhibitors; type: cell-based, human
Protocol: Immunoblot analysis was performed. […] Asterisks indicate endogenous cyclin D1 expression. Panel B: Western blot analysis with fractionated nuclear proteins. […] Cell-cycle distribution was shown as bar graphs. Nuclear proteins were fractionated at indicated time points. […] Levels of total and phosphorylated cyclin D1 were determined.
(§3) Immunoblotting Analysis. […] SDS-PAGE was described previously (Tetsu and McCormick, 2003).
To identify the kinase responsible for cyclin D1 Thr286 phosphorylation, small molecule inhibitors of GSK3β, CDK4, and MEK were used to determine whether they were able to alter the phosphorylation and stability of ectopically expressed WT cyclin D1 protein in cultured cells (FIG. 5, Panels C and D). Ectopically expressed WT cyclin D1 protein was used to assess the stability of cyclin D1 protein. The endogenous expression was not assessed because transcription of cyclin D1 is regulated by the Ras/MAPK signaling. Therefore, endogenous expression of cyclin D1 is unable to be detected following inhibition of MAPK activities through the MEK/MAPK inhibitors or serum starvation (Tetsu et al., 2003. Cancer Cell. 3, 233-45).

cyclin D1 protein [4] = test: Western blot of cyclin D1 with or without MG132 during cell cycle progression, NIH 3T3 cells; type: cell-based, mouse
Protocol: HCT 116 and NIH 3T3 cells were treated with the proteasome inhibitor MG132 at each time point during cell cycle progression (FIG. 3, Panel C).

cyclin D1 protein [5] = test: Western blot of cyclin D1 with or without MG132 during cell cycle progression, WI-38 cells; type: cell-based, human; settings: MG132 2 hours
Protocol: (§4) FIG. 3 illustrates that cyclin D1 is destabilized during S phase through the ubiquitin-proteasome pathway in cancers. Panels A and B: Pulse-chase analysis of cyclin D1 protein in NIH 3T3 (Panel A) and HCT 116 (Panel B) cells. When most of the populations were in G1 phase (9 hrs for NIH3T3 and 6 hrs for HCT 116) or in S phase (21 hrs for NIH3T3 and 15 hrs for HCT 116), cells were released from quiescence and then labeled with 35^S-methionine for 1 hour. Subsequently these cells were chased with cold methionine for the indicated times and then lysed. Cyclin D1 was immunoprecipitated and then analyzed with SDS-PAGE. Autoradiography was performed. Levels of metabolically labeled-cyclin D1 were estimated by quantitative scanning using the Quantity One (Bio-Rad) software and blotted on the graph to determine the half-life of cyclin D1. Panel C: illustrates that the turnover of cyclin D1 protein is mediated by the ubiquitin-proteasome pathway. […] Western blot was performed with cyclin D1 and p-actin antibodies. Panel D: Polyubiquitination of cyclin D1 protein. HCT 116 colon cancer cells were transfected with (lane 1-3) or without (lane 4) ubiquitin cDNA and then synchronized to S phase through the sequential manipulation of serum starvation and stimulation. Cells were treated with (lane 3 and 4) or without (lane 1 and 2) 25 μM MG132 for an hour. […]

cyclin D1 protein [6] = test: Western blot of cyclin D1 with or without MG132 during cell cycle progression, HCT 116 cells; type: cell-based, human; settings: MG132 2 hours
Protocol: as §4

cyclin D1 protein [7] = settings: HA-WT cyclin D1 SW480 cells; U0126 24 hours, then CHX, chased 3 hours
Protocol: FIG. 8 illustrates that MAPK regulates stability and relocalization of cyclin D1 protein. Panels A and B: Half-life analysis of HA-CD1 WT after exposure to U0126. Panel A: Exponentially growing HA-WT cyclin D1 SW480 cells were exposed to U0126 for 24 hours and subsequently treated with CHX and chased for 3 hours. Cells were harvested at different times and protein blot was performed (upper panel). Cyclin D1 expression was quantified and the half-life was calculated respectively. Panel B: Western blot analysis.
Immunoblotting Analysis. […] NE-PER nuclear and cytoplasmic extraction reagents (Pierce) were used for nuclear and cytoplasmic fractionation. […] Western blots were developed by enhanced chemiluminescence (Amersham or Upstate). […] Intensities of bands were quantified using Gel Doc 600 and Quantity One software (BioRad).
Exponentially growing HA-WT cyclin D1 SW480 cells were exposed to U0126 for 24 hours and subsequently treated with CHX and chased for 3 hours. […] Cyclin D1 expression was quantified and the half-life was calculated (FIG. 8, Panel A bottom graph).

[8] = tested on: cyclin D1 / E3 ligase FBXW8; settings: HCT 116 transfected with FBXW8, cyclin D1 and CDK4; 10 μM U0126 30 minutes
Protocol: Panel D: Immunoprecipitated-immunoblotting analysis. […] Panels D and E: Exponentially growing HCT 116 colon cancer cells were transiently transfected with Flag epitope-tagged FBXW8 DNA plasmid together with HA-tagged cyclin D1 and CDK4 expression vectors. Twenty-four hours later cells were treated with DMSO (−) or 10 μM of U0126 (+) for 30 minutes and then harvested. Cell lysates were immunoprecipitated with either a Flag (FBXW8) antibody or a control IgG and immunoblotted with cyclin D1, pThr286, and Flag (FBXW8) antibodies (left panel). Western blot for input controls (lysate) were provided (right panel).
Immunoprecipitation and Immunoblotting Analysis. […] Following antibodies were used for immunoprecipitation; Flag (M2 Agarose-conjugated, Sigma), cyclin D1 (A-12, Agarose-conjugated, Santa Cruz), CDK4 (H-303 or C-22 Agarose-conjugated, Santa Cruz), CDK6 (C-21, Santa Cruz), FLA (M2 Agarose-conjugated, Sigma), and HA (Y-11 Agarose-conjugated, Santa Cruz). Immunoblotting was performed using antibodies described above.
FBXW8 DNA plasmid together with cyclin D1 and CDK4 expression vectors were transiently transfected in exponentially growing HCT 116 colon cancer cells. After 24 hours, cells were treated with U0126 to inhibit MEK/MAPK signaling for 30 minutes. Subsequently cells were collected and an immunoprecipitated-immunoblotting analysis was performed (FIG. 12, Panels D and E).

[9] = tested on: cyclin D1 protein (Thr286 phosphorylation); test: Western blot of total cyclin D1 and pThr286 in HCT 116 cells after U0126 or GSK3 inhibitor; type: cell-based, human
Protocol: (§5) FIG. 11 illustrates that ERK/MAPK is identified as the major kinase that is responsible for the stability of cyclin D1 protein. Panels A-F: Pulse-chase analysis of cyclin D1 protein in HCT 116 cells after exposure to the MEK inhibitor U0126 (A-C) or the GSK3 inhibitor BIO (D-F). Exponentially growing HCT 116 cells were treated with either DMSO or 10 μM of U0126 (A-C) for 30 minutes, or DMSO or 5 μM of BIO (D-F) for 24 hours. Panels A and D: Cells were pulse-labeled with ^35S-methionine for 1 hour. Subsequently these cells were chased with cold methionine for the indicated times, and then lysed respectively. Cyclin D1 was immunoprecipitated and then analyzed with SDS-PAGE. Autoradiography was performed. Levels of metabolically labeled-cyclin D1 were estimated by quantitative scanning using the Quantity One (Bio-Rad) software and blotted on the graph to determine the half-life of cyclin D1. Panels B and E: Western blot analysis. The membrane was blotted with a cyclin D1 Thr286 phosphorylation specific (pThr286), total cyclin D1, a phosphorylation specific ERK, and total ERK antibodies (B), or a pThr286, cyclin D1, a GSKα/β phosphorylation specific, and GSK3β antibodies (E). Panels C and F: Cell cycle distributions were shown. Panel G: Western blot analysis following transfection of various forms of HA-tagged cyclin D1 expression vectors in both NIH 3T3 mouse fibroblast (left) and HCT 116 colon cancer (right) cells. In lane 5 and 10, cells were treated with 5 μM of BIO for further 24 hours following transfection of the ΔD CD1 mutant.
as §3
To determine the contribution of ERK/MAPK to the stability of cyclin D1 in cancer cells, MAPK activity was inhibited with the MEK inhibitor U0126 (Favata et al., 1998. J Bio Chem. 273, 18623-32; Davies et al., 2000. Biochem J. 351, 95-105). Exponentially growing HCT 116 colon cancer cells were treated with U0126 for 30 minutes (FIG. 11, Panels A-C).
In contrast, no effect on phosphorylation status and stability of cyclin D1 protein through inhibition of GSK3α/β ([…], Panels D-F) were detected. […] Cycling HCT 116 colon cancer cells were treated with BIO for 24 hours (FIG. 11, Panels D-F). A phosphorylation specific antibody to GSK3α and β was used to measure their endogenous activities because phosphorylations of GSK3α at Tyr279 and GSK3β at Tyr216 are intramolecular autophosphorylation events in the cells. Thus, phosphorylation status reflects their kinase activities (Cole et al., 2004. Biochem J. 377, 249-55).

[10] = tested on: HCT 116 colon cancer cells; test: Flow-cytometric cell cycle analysis, HCT 116 cells; type: cell-based, human; settings: U0126 30 minutes
Protocol: Cell cycle analysis was carried out as described previously (Tetsu et al. (1999) Nature 398: 422-6; Tetsu et al. (2003) Cancer Cell 3: 233-45.

MEK/MAPK [11] = tested on: MEK/MAPK
Protocol: Immunoblot analysis was performed. […] Panels C and D: HA-WT CD1 (D) or Panel E: HA-CD1 T286A ectopically expressing SW480 cells were treated with highly specific small molecule inhibitors for GSK3β CDK4 and MEK. LiCl and BIO, AG12275, and U0126 were used for GSK, CDK4 and MEK/MAPK inhibitions respectively. Twenty-four hours after the treatment, cells were harvested and western-blot analyses were performed with a cyclin D1 and the p-Thr286 cyclin D1 antibodies. The phosphorylated cyclin D1 expression was magnified and normalized to its total (phosphorylated plus non-phosphorylated protein) expression and shown in the graphs in Panel C. Inhibition of the kinase activities by drugs was assessed using phosphorylation-specific antibodies for GSK3α/β, Rb and ERK1/2 on the same membrane respectively. […] HA-WT CD1 SW480 cells were treated with combining U0126 with LiCl.
After 24 hours of treatment with these highly specific small molecule inhibitors, expression levels of cyclin D1 and its phosphorylated form were analyzed (FIG. 5, Panel C). Levels of phosphorylated cyclin D1 were estimated by quantitative scanning with Quantity One (Bio Rad) software and were normalized to levels of total cyclin D1 protein (FIG. 5, Panel C bottom graphs).
Cells were next treated with the MEK inhibitor U0126.

MEK/MAPK [12] = test: Western blot of phosphorylated ERK (pERK) in HCT 116 cells; type: cell-based, human
Protocol: as §5, with “Panel G: Western blot analysis following transfection of various forms of HA-tagged cyclin D1 expression vectors in both NIH 3T3 mouse fibroblast (left) and HCT 116 colon cancer (right) cells. In lane 5 and 10, cells were treated with 5 μM of BIO for further 24 hours following transfection of the ΔD CD1 mutant.” left out

cyclin D1 protein [13] = test: Pulse-chase analysis of cyclin D1 protein in HCT 116 cells; type: cell-based, human; settings: exponentially growing HCT 116; 10 μM U0126 30 minutes
Protocol: FIG. 11 illustrates that ERK/MAPK is identified as the major kinase that is responsible for the stability of cyclin D1 protein. Panels A-F: Pulse-chase analysis of cyclin D1 protein in HCT 116 cells after exposure to the MEK inhibitor U0126 (A-C) or the GSK3 inhibitor BIO (D-F). Exponentially growing HCT 116 cells were treated with either DMSO or 10 μM of U0126 (A-C) for 30 minutes, or DMSO or 5 μM of BIO (D-F) for 24 hours. Panels A and D: Cells were pulse-labeled with ^35S-methionine for 1 hour. Subsequently these cells were chased with cold methionine for the indicated times, and then lysed respectively. Cyclin D1 was immunoprecipitated and then analyzed with SDS-PAGE. Autoradiography was performed. Levels of metabolically labeled-cyclin D1 were estimated by quantitative scanning using the Quantity One (Bio-Rad) software and blotted on the graph to determine the half-life of cyclin D1. […]
FIG. 18 illustrates that knockdown of FBXW8, or its partner CUL1 or CUL7 expression through siRNA stabilizes cyclin D1 expression in HCT 116 colon cancer cells. […] Cyclin D1 was immunoprecipitated and then analyzed with SDS-PAGE. Levels of metabolically labeled-cyclin D1 were estimated by quantitative scanning using the Quantity One software (Bio-Rad) and blotted on the graph to determine the half-life of cyclin D1 (D).
Pulse-Chase Analysis. […] Cyclin D1 was immunoprecipitated and then analyzed with SDS-PAGE. […]

[14] = HA-WT CD1 SW480 cells, U0126 24 hours
[15] = HCT 116 transfected with FBXW8, cyclin D1 and CDK4, 10 μM U0126 30 minutes
[16] = exponentially growing HCT 116, U0126 30 minutes

Compound: 4-hydroxy-tamoxifen [4-HT]
- MAPK activation (MAPK (ERK1/2)): MAPK activation
- half-life of cyclin D1 protein (T1/2) (cyclin D1 protein [1]; exponentially growing cells, 10 nM 4-HT, then CHX, chased 3 hours): 20.6 min
- cyclin D1 expression in S phase (cyclin D1 protein [1]; serum-stimulated from quiescence in the presence of 4-HT): dramatic reduction

Compound: CCC(=C/[C@H](C)C/C=C/C(C)=C/[C@@H](C)C(=O)[C@@H](C)[C@H](O)[C@@H](C)C/C(C)=C/C(=O)O)/C=C/[C@@H]1OC(=O)C=C[C@@H]1C [Leptomycin B]
- polyubiquitinated cyclin D1 bands in the nucleus ([2]; LMB 3 hours, then MG132 for an hour, nuclear fraction): did not enhance these bands significantly

Compound: [Cl-].[Li+] [LiCl]
- phosphorylated forms of GSK3α/β (GSK3α/β): disappeared
- total cyclin D1 expression and its phosphorylated protein ([3]; HA-WT CD1 SW480 cells, 24 hours of treatment): no significant difference
- effect of adding LiCl to U0126 on cyclin D1 ([3]; HA-WT cyclin D1 SW480 cells, U0126 combined with LiCl): little enhancement

Compound: CC(C)C[C@@H](C=O)NC(=O)[C@H](CC(C)C)NC(=O)[C@H](CC(C)C)NC(=O)OCc1ccccc1 [MG132] (Cbz-Leu-Leu-Leu-aldehyde)
- reduced mobility (polyubiquitinated cyclin D1) bands ([2]; 25 μM MG132 for an hour): enhanced further
- cyclin D1 protein accumulation, G1 versus S phase (cyclin D1 protein [4]): no difference between the G1 and S phase
- cyclin D1 protein accumulation, G1 versus S phase (cyclin D1 protein [5]): no remarkable different
- cyclin D1 protein accumulation during G1 phase (cyclin D1 protein [6]): no significant accumulation
- cyclin D1 protein accumulation in S phase (cyclin D1 protein [6]): accumulated significantly

Compound: N#CC(=C(/N)Sc1ccccc1N)/C(C#N)=C(\N)Sc1ccccc1N [U0126]
- half-life of cyclin D1 protein (T1/2) (cyclin D1 protein [7]): 60.3 min
- association of cyclin D1 with the E3 ligase FBXW8 [8]: significant decrease
- ectopic expression of cyclin D1 T286A protein ([3]; HA-CD1 T286A SW480 cells, U0126): did not accumulate
- cyclin D1 expression (ectopic HA-WT) [3, 14]: dramatic induction
- ratio of phosphorylated cyclin D1 at Thr286 to total cyclin D1 [3, 14]: significant reduction
- phosphorylation status of cyclin D1 at Thr286 (pThr286) [9, 15]: significantly inhibited
- level of total cyclin D1 [9, 16]: not changed
- phosphorylation of cyclin D1 at Thr286 (pThr286) [9, 16]: dramatic reduction
- cell cycle profile [10]: without affecting
- MAPK activity (MEK/MAPK [11]; HA-WT cyclin D1 SW480 cells, U0126 24 hours (FIG. 8 Panel B)): completely inhibited
- phosphorylated ERK (MEK/MAPK [11]; SW480 cells, 24 hours after exposure): disappeared
- MAPK activities (pERK) (MEK/MAPK [12]; [15]): significantly inhibited
- phosphorylated form of ERK (pERK) (MEK/MAPK [12]; [16]): significantly depleted
- half-life of cyclin D1 protein (cyclin D1 protein [13]): 54.6 min
